Results reported in ChEMBL document CHEMBL1201862, “PubChem BioAssay data set” (2004).
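A five-concentration, 48-hour dose response in 96-well plates underlies each endpoint, interpolated linearly between surrounding concentrations. The concentration for 50% growth inhibition is given as GI50.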 Activity calls are given as the source filed them. No stated cut-off is given here; in the data, active = GI50 up to about 1.1 µM and inactive = higher.

How the values were obtained:
Assay in all cases: DTP human tumour cell line panel, 48 h
NCI-H23 = tested on: NCI-H23
SNB-75 = tested on: SNB-75
HCT-15 = tested on: HCT-15
IGROV-1 = tested on: IGROV-1
MOLT-4 = tested on: MOLT-4
MDA-MB-435 = tested on: MDA-MB-435
MCF7 = tested on: MCF7
OVCAR-3 = tested on: OVCAR-3
NCI/ADR-RES = tested on: NCI/ADR-RES
SF-295 = tested on: SF-295
KM12 = tested on: KM12
BT-549 = tested on: BT-549
SW-620 = tested on: SW-620
HCC 2998 = tested on: HCC 2998
A549 = tested on: A549
SNB-19 = tested on: SNB-19
SF-268 = tested on: SF-268
OVCAR-5 = tested on: OVCAR-5
HOP-92 = tested on: HOP-92
U-251 = tested on: U-251

| Compound | GI50 (NCI-H23) | GI50 (SNB-75) | GI50 (HCT-15) [µM] | GI50 (IGROV-1) | GI50 (MOLT-4) | GI50 (MDA-MB-435) | GI50 (MCF7) | GI50 (OVCAR-3) | GI50 (NCI/ADR-RES) | GI50 (SF-295) | GI50 (KM12) | GI50 (BT-549) | GI50 (SW-620) | GI50 (HCC 2998) | GI50 (A549) | GI50 (SNB-19) | GI50 (SF-268) | GI50 (OVCAR-5) | GI50 (HOP-92) | GI50 (U-251) |
| --- | --- | --- | --- | --- | --- | --- | --- | --- | --- | --- | --- | --- | --- | --- | --- | --- | --- | --- | --- | --- |
| Nc1ccc(S(=O)(=O)Nc2ccc(Nc3c4ccccc4nc4ccccc34)cc2)cc1 | 0.0185 µM (active) | 0.0158 µM (active) | 0.579 | 0.769 µM (active) | < 0.01 µM (active) | 9.33 µM (inactive) | < 0.01 µM (active) | 0.245 µM (active) | 4.83 µM (inactive) | 0.0127 µM (active) | 0.169 µM (active) | 0.0906 µM (active) | 0.0485 µM (active) | 0.164 µM (active) | < 0.01 µM (active) | 0.0182 µM (active) | 0.0168 µM (active) | 0.164 µM (active) | 0.5 µM (active) | 0.0154 µM (active) |
| O=c1c2ccccc2n2cnc3ccc(NCCNCCO)c1c32 | 2.16 µM (inactive) | 1.86 µM (inactive) | 3.18 | 1.91 µM (inactive) | 0.359 µM (active) | 1.52 µM (inactive) | 2.52 µM (inactive) | 2.19 µM (inactive) | 2.81 µM (inactive) | 1.83 µM (inactive) | 1.17 µM (inactive) | 3.66 µM (inactive) | 0.589 µM (active) | 1.77 µM (inactive) | 1.05 µM (active) | 3.78 µM (inactive) | 1.46 µM (inactive) | 2.02 µM (inactive) | 4.24 µM (inactive) | 2.1 µM (inactive) |
| C=CC(C)(O)/C=C/C=C(\C)C(CC1OC1(C)C)OC(=O)/C(C)=C\C (stereo not given) | > 100 µM (inactive) | > 100 µM (inactive) | > 100 | > 100 µM (inactive) | > 100 µM (inactive) | > 100 µM (inactive) | > 100 µM (inactive) | > 100 µM (inactive) | > 100 µM (inactive) | > 100 µM (inactive) | > 100 µM (inactive) | > 100 µM (inactive) | > 100 µM (inactive) | > 100 µM (inactive) | > 100 µM (inactive) | > 100 µM (inactive) | > 100 µM (inactive) | > 100 µM (inactive) | > 100 µM (inactive) | > 100 µM (inactive) |
| Cc1cccc(CNNC(=O)c2cc[n+]([BH2-]C#N)cc2)c1 | 18.6 µM (inactive) | 21.7 µM (inactive) | 21.4 | 22 µM (inactive) | 28.2 µM (inactive) | 28.3 µM (inactive) | 36.5 µM (inactive) | 32.1 µM (inactive) | 24.7 µM (inactive) | 36.1 µM (inactive) | 22.6 µM (inactive) | 42.5 µM (inactive) | 34 µM (inactive) | 22.4 µM (inactive) | 39.1 µM (inactive) | 48.2 µM (inactive) | 26.7 µM (inactive) | 37.5 µM (inactive) | 4.47 µM (inactive) | 39.5 µM (inactive) |
| O=c1c2c3c(sc2nc2n1N=C(c1ccc(Cl)cc1)CS2)CCCC3 | > 100 µM (inactive) | > 100 µM (inactive) | > 100 | > 100 µM (inactive) | > 100 µM (inactive) | > 100 µM (inactive) | > 100 µM (inactive) | > 100 µM (inactive) | > 100 µM (inactive) | > 100 µM (inactive) | > 100 µM (inactive) | > 100 µM (inactive) | > 100 µM (inactive) | > 100 µM (inactive) | > 100 µM (inactive) |  | > 100 µM (inactive) | > 100 µM (inactive) | > 100 µM (inactive) | > 100 µM (inactive) |
| COC(=O)CC(=O)Nc1sccc1S(=O)(=O)c1ccccc1 | > 100 µM (inactive) | > 100 µM (inactive) | 27.2 | > 100 µM (inactive) | > 100 µM (inactive) | > 100 µM (inactive) | 65.8 µM (inactive) | 16.4 µM (inactive) | > 100 µM (inactive) | > 100 µM (inactive) | 94.8 µM (inactive) | 27.5 µM (inactive) | > 100 µM (inactive) | 15.8 µM (inactive) | > 100 µM (inactive) | > 100 µM (inactive) | > 100 µM (inactive) | > 100 µM (inactive) | > 100 µM (inactive) | > 100 µM (inactive) |
| COc1ccc(CN(Cc2ccc(OC)cc2)C(=O)CC2(O)CCc3ccccc3C2)cc1 (stereo not given) | > 100 µM (inactive) | 30.1 µM (inactive) | 54.6 | > 100 µM (inactive) | 7.89 µM (inactive) | 34.8 µM (inactive) | 41.2 µM (inactive) | > 100 µM (inactive) | 12.9 µM (inactive) | 27.1 µM (inactive) | 26 µM (inactive) | > 100 µM (inactive) | > 100 µM (inactive) | 68.9 µM (inactive) | 30.1 µM (inactive) | > 100 µM (inactive) |  | > 100 µM (inactive) | > 100 µM (inactive) | 63.1 µM (inactive) |
| COc1cccc2[nH]c(-c3ccccn3)nc12 | > 100 µM (inactive) | > 100 µM (inactive) | 55.7 | > 100 µM (inactive) |  | > 100 µM (inactive) | > 100 µM (inactive) | 55.7 µM (inactive) | 14.3 µM (inactive) | 52.6 µM (inactive) | > 100 µM (inactive) | > 100 µM (inactive) | > 100 µM (inactive) | > 100 µM (inactive) | > 100 µM (inactive) | > 100 µM (inactive) | 72.4 µM (inactive) | > 100 µM (inactive) | > 100 µM (inactive) | > 100 µM (inactive) |
| CC(=O)n1c(COS(C)(=O)=O)nc2ccccc21 | > 100 µM (inactive) | > 100 µM (inactive) | > 100 | 66.1 µM (inactive) |  | > 100 µM (inactive) | 79.3 µM (inactive) | 58.6 µM (inactive) | > 100 µM (inactive) | 54 µM (inactive) | > 100 µM (inactive) | > 100 µM (inactive) | > 100 µM (inactive) | > 100 µM (inactive) | > 100 µM (inactive) | > 100 µM (inactive) | > 100 µM (inactive) | > 100 µM (inactive) | > 100 µM (inactive) | > 100 µM (inactive) |
| CC(C)OC(=O)C1=C2c3ncccc3C(=O)N2[C@@H](Cl)[C@@H](Cl)[C@@H]1Cl | > 100 µM (inactive) |  | > 100 | 96.4 µM (inactive) | 31.8 µM (inactive) | > 100 µM (inactive) | 84.3 µM (inactive) | > 100 µM (inactive) | > 100 µM (inactive) | > 100 µM (inactive) | > 100 µM (inactive) | > 100 µM (inactive) | 34.9 µM (inactive) | > 100 µM (inactive) | > 100 µM (inactive) | > 100 µM (inactive) | 82.2 µM (inactive) | > 100 µM (inactive) | > 100 µM (inactive) | > 100 µM (inactive) |
